# Laboratory results: patent publication US20020137929A1, “1 - (3-heterocyclylphenyl) isothiourea, -isourea, -guanidine and -amidine herbicidal agents” (Intellectual Property Department, BASF Aktiengesellschaft, priority 1998, published 2002)
# Key:
# [1] = tested on: ABUTH (Velvetleaf); test: Postemergence herbicidal evaluation; format: in vivo, Abutilon theophrasti; conditions: postemergence
# How it was run: (§1)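 ~2-wk seedlings; postemergence spray, 40 psi; vehicle 1:1 acetone:water + 0.5% Tween 20; rate ≈0.0156–0.500 kg/ha; greenhouse hold; scored 4–5 wk after treatment, 0–9 scale vs control; repeat tests averaged.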
# [2] = tested on: IPOHE (Morningglory, Ivyleaf); test: Postemergence herbicidal evaluation; format: in vivo, Ipomoea hederacea; conditions: postemergence
# How it was run: as §1
# [3] = tested on: SETVI (Foxtail, Green); test: Postemergence herbicidal evaluation; format: in vivo, Setaria viridis; conditions: postemergence
# How it was run: as §1
# [4] = tested on: GLXMAW (Soybean, Williams); test: Postemergence herbicidal evaluation; format: in vivo, Glycine max, (L.) Merr. cv Williams; conditions: postemergence
# How it was run: as §1
# [5] = tested on: ZEAMX (Corn, Field); test: Postemergence herbicidal evaluation; format: in vivo, Zea mays; conditions: postemergence
# How it was run: as §1
# [6] = tested on: ABUTH (Velvetleaf); test: Preemergence herbicidal evaluation; format: in vivo, Abutilon theophrasti; conditions: rated 4-5 weeks after treatment
# How it was run: (§2)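 Seeds were mixed with potting soil and planted on about one inch of soil, then sprayed with test compound in aqueous acetone at about 0.0156 to 0.500 kg per hectare. Plants grew under standard greenhouse care and were visually rated 0-9 against untreated controls 4-5 weeks post-treatment.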
# [7] = tested on: AMBEL (Ragweed, Common); test: Preemergence herbicidal evaluation; format: in vivo, Ambrosia artemisifolia; conditions: rated 4-5 weeks after treatment
# How it was run: as §2
# [8] = tested on: CASOB (Sicklepod); test: Preemergence herbicidal evaluation; format: in vivo, Cassia obtusifolia; conditions: rated 4-5 weeks after treatment
# How it was run: as §2
# [9] = tested on: IPOHE (Morningglory, Ivyleaf); test: Preemergence herbicidal evaluation; format: in vivo, Ipomoea hederacea; conditions: rated 4-5 weeks after treatment
# How it was run: as §2
# [10] = tested on: ECHCG (Barnyardgrass); test: Preemergence herbicidal evaluation; format: in vivo, Echinochloa crus-galli; conditions: rated 4-5 weeks after treatment
# How it was run: as §2
# [11] = tested on: ECHORC (Watergrass (Calif.)); test: Preemergence weed control under flooded paddy conditions; format: in vivo, Echinochloa oryzoides; conditions: rated 3-4 weeks after treatment
# How it was run: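 Flooded-pot preemergence screen with silt loam and seeds in the upper 0.5 cm. Dose about 0.0313 to 0.500 kg/ha, delivered into flood water; visual 0-9 score after 3 to 4 weeks.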
# [12] = tested on: CYPSE (Flatsedge); test: as above; format: in vivo, Cyperus serotinus; conditions: rated 3-4 weeks after treatment
# How it was run: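 Values are visual 0-9 scores against a control for a preemergence application into paddy flood water at about 0.0313 to 0.500 kg/ha. Greenhouse duration was three to four weeks.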
# [13] = tested on: ECHORC (Watergrass (Calif.)); test: Postemergence weed control under flooded paddy conditions; format: in vivo, Echinochloa oryzoides; conditions: postemergence weeds, 3-4 weeks after treatment
# How it was run: (§3)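 With weeds 3 to 5 cm tall and rice at the 1.5 to 2.5 leaf stage, containers were flooded and water held 1.5 to 3 cm above soil. Compounds in 50/50 v/v aqueous/acetone went into the flood water at about 0.0313 to 0.500 kg/ha a.i. Effects were visually rated 0–9 against controls after three to four weeks in the greenhouse.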
# [14] = tested on: CYPIR (Rice Flatsedge); test: as above; format: in vivo, Cyperus iria; conditions: postemergence weeds, 3-4 weeks after treatment
# How it was run: as §3
compound,measurement,setting,value
"CCOC(=O)CN1C(=O)C(F)SC1=Nc1cc(-n2c(=O)cc(C(F)(F)F)n(C)c2=O)c(F)cc1Cl (stereo not shown) [Compound 11, Ethyl 2-{{2-chloro-5-[3,6-dihydro-3-methyl-2,6-dioxo-4-(trifluoromethyl)-1(2H)-pyrimidinyl]-4-fluorophenyl}imino}-5-fluoro-4-oxo-3-thiazolidineacetate]",ABUTH herbicidal rating,[1]; rate 0.0156 kg/ha,9.0
same,ABUTH herbicidal rating,[1]; rate 0.0313 kg/ha,9.0
same,ABUTH herbicidal rating,[1]; rate 0.0625 kg/ha,9.0
same,ABUTH herbicidal rating,[1]; rate 0.1250 kg/ha,9.0
same,IPOHE herbicidal rating,[2]; rate 0.0156 kg/ha,9.0
same,IPOHE herbicidal rating,[2]; rate 0.0313 kg/ha,9.0
same,IPOHE herbicidal rating,[2]; rate 0.0625 kg/ha,9.0
same,IPOHE herbicidal rating,[2]; rate 0.1250 kg/ha,9.0
same,SETVI herbicidal rating,[3]; rate 0.0156 kg/ha,0.0
same,SETVI herbicidal rating,[3]; rate 0.0313 kg/ha,0.0
same,SETVI herbicidal rating,[3]; rate 0.0625 kg/ha,6.0
same,SETVI herbicidal rating,[3]; rate 0.1250 kg/ha,9.0
same,GLXMAW herbicidal rating,[4]; rate 0.0156 kg/ha,5.0
same,GLXMAW herbicidal rating,[4]; rate 0.0313 kg/ha,7.5
same,GLXMAW herbicidal rating,[4]; rate 0.0625 kg/ha,9.0
same,GLXMAW herbicidal rating,[4]; rate 0.1250 kg/ha,9.0
same,ZEAMX herbicidal rating,[5]; rate 0.0156 kg/ha,6.5
same,ZEAMX herbicidal rating,[5]; rate 0.0313 kg/ha,6.5
same,ZEAMX herbicidal rating,[5]; rate 0.0625 kg/ha,7.5
same,ZEAMX herbicidal rating,[5]; rate 0.1250 kg/ha,7.5
same,ABUTH preemergence herbicidal rating,[6]; rate 0.0156 kg/ha,7.5
same,ABUTH preemergence herbicidal rating,[6]; rate 0.0313 kg/ha,8.5
same,ABUTH preemergence herbicidal rating,[6]; rate 0.0625 kg/ha,8.5
same,ABUTH preemergence herbicidal rating,[6]; rate 0.1250 kg/ha,9.0
same,ABUTH preemergence herbicidal rating,[6]; rate 0.2500 kg/ha,9.0
same,AMBEL preemergence herbicidal rating,[7]; rate 0.0156 kg/ha,0.0
same,AMBEL preemergence herbicidal rating,[7]; rate 0.0313 kg/ha,1.0
same,AMBEL preemergence herbicidal rating,[7]; rate 0.0625 kg/ha,5.5
same,AMBEL preemergence herbicidal rating,[7]; rate 0.1250 kg/ha,6.5
same,AMBEL preemergence herbicidal rating,[7]; rate 0.2500 kg/ha,9.0
same,CASOB preemergence herbicidal rating,[8]; rate 0.0156 kg/ha,0.0
same,CASOB preemergence herbicidal rating,[8]; rate 0.0313 kg/ha,0.0
same,CASOB preemergence herbicidal rating,[8]; rate 0.0625 kg/ha,0.0
same,CASOB preemergence herbicidal rating,[8]; rate 0.1250 kg/ha,0.0
same,CASOB preemergence herbicidal rating,[8]; rate 0.2500 kg/ha,5.5
same,IPOHE preemergence herbicidal rating,[9]; rate 0.0156 kg/ha,2.0
same,IPOHE preemergence herbicidal rating,[9]; rate 0.0313 kg/ha,8.0
same,IPOHE preemergence herbicidal rating,[9]; rate 0.0625 kg/ha,8.0
same,IPOHE preemergence herbicidal rating,[9]; rate 0.1250 kg/ha,9.0
same,IPOHE preemergence herbicidal rating,[9]; rate 0.2500 kg/ha,9.0
same,ECHCG preemergence herbicidal rating,[10]; rate 0.0156 kg/ha,0.0
same,ECHCG preemergence herbicidal rating,[10]; rate 0.0313 kg/ha,0.0
same,ECHCG preemergence herbicidal rating,[10]; rate 0.0625 kg/ha,0.0
same,ECHCG preemergence herbicidal rating,[10]; rate 0.1250 kg/ha,3.5
same,ECHCG preemergence herbicidal rating,[10]; rate 0.2500 kg/ha,7.0
same,Herbicidal rating ECHORC,[11]; 0.0313 kg/ha,1.0
same,Herbicidal rating ECHORC,[11]; 0.0625 kg/ha,2.0
same,Herbicidal rating ECHORC,[11]; 0.1250 kg/ha,2.0
same,Herbicidal rating ECHORC,[11]; 0.2500 kg/ha,3.0
same,Herbicidal rating CYPSE,[12]; 0.0313 kg/ha,0.0
same,Herbicidal rating CYPSE,[12]; 0.0625 kg/ha,0.0
same,Herbicidal rating CYPSE,[12]; 0.1250 kg/ha,0.0
same,Herbicidal rating CYPSE,[12]; 0.2500 kg/ha,0.0
same,Herbicidal rating ECHORC,[13]; rate 0.0313 kg/ha,1.0
same,Herbicidal rating ECHORC,[13]; rate 0.0625 kg/ha,2.0
same,Herbicidal rating ECHORC,[13]; rate 0.1250 kg/ha,2.0
same,Herbicidal rating ECHORC,[13]; rate 0.2500 kg/ha,3.0
same,Herbicidal rating CYPIR,[14]; rate 0.0313 kg/ha,0.0
same,Herbicidal rating CYPIR,[14]; rate 0.0625 kg/ha,0.0
same,Herbicidal rating CYPIR,[14]; rate 0.1250 kg/ha,0.0
same,Herbicidal rating CYPIR,[14]; rate 0.2500 kg/ha,0.0
